Patent US20100120715A1, “BETA-LACTAMASE INHIBITORS” (priority 2007, published 2010)
Where two headings read alike, the source gives them in different places.

Legend:
Class A ESBL SHV-5 = target: T1, Class A ESBL SHV-5 (Klebsiella pneumoniae, UniProt P0A3M1); assay type: biochemical, E. coli; details: nitrocefin 100 μM, PBS pH 7.0, read-out: SHV-5 IC50 Range
T1 construct: made in house; host or cells: E. coli BL21(DE3) for purified enzyme; E. coli cells containing SHV-5 for extracts

Class A ESBL CTXM-15 = target: T2, Class A ESBL CTXM-15 (Escherichia coli, UniProt Q9EXV5); experiment: β-lactamase enzyme inhibition (nitrocefin hydrolysis), CTXM-15; assay type: biochemical; details: purified enzyme; nitrocefin 100 μM, PBS pH 7.0; read-out: CTXM-15 IC50 Range
T2 construct: made in house; host or cells: E. coli BL21(DE3)
T2 sequence (Q9EXV5 entry or part of it): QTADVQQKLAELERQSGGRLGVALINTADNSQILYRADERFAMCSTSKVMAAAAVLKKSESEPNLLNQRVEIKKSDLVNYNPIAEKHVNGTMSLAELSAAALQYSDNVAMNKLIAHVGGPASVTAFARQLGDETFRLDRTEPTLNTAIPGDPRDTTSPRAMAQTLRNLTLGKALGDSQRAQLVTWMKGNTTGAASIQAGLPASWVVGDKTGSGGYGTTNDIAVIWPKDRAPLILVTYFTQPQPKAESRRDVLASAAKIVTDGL
In short: (§1)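 Native untagged enzymes were expressed in E. coli BL21(DE3) and purified by cation exchange and gel filtration. Compound series (100–0.005 μM in PBS pH 7.0, before addition of an equal enzyme volume) were preincubated with enzyme 10 min at 37°C. Nitrocefin (100 μM final) hydrolysis was read kinetically at 486 nm for 10 min, and IC50 was taken as 50% reduction of initial rate versus no-inhibitor wells.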

Class C P99 AmpC = target: T3, Class C P99 AmpC (Enterobacter cloacae, UniProt P05364); assay type: biochemical; details: purified enzyme; nitrocefin 100 μM, PBS pH 7.0; read-out: P99 AmpC IC50 Range
T3 construct: made in house; host or cells: E. coli BL21(DE3)
T3 sequence (P05364 21-381): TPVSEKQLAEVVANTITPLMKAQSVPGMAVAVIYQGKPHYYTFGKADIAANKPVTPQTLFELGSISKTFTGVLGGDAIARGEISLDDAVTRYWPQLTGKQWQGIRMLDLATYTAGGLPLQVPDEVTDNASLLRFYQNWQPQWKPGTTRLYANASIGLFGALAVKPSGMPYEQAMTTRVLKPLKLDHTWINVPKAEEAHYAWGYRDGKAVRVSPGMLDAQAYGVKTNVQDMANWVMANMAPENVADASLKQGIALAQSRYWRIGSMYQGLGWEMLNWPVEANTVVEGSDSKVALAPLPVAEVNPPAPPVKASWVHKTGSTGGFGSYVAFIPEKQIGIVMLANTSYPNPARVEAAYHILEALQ
In short: as §1

[1] = target: T4, Class A carbapenemase KPC-2 (Klebsiella pneumoniae, UniProt Q9F663); experiment: β-lactamase enzyme inhibition (nitrocefin hydrolysis), KPC-2; assay type: biochemical; details: purified enzyme; nitrocefin 100 μM, PBS pH 7.0; read-out: KPC-2 IC50 Range
T4 construct: made in house; host or cells: E. coli BL21(DE3)
T4 sequence (Q9F663 25-293 limits assumed): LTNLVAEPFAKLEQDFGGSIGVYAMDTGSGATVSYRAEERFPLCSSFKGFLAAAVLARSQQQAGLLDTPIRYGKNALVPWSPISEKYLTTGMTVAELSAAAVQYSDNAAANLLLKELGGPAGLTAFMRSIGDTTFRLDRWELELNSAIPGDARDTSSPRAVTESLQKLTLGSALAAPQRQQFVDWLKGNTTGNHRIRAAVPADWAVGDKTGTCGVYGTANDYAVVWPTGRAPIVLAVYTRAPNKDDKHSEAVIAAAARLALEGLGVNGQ
In short: as §1

[2] = system: E. cloacae expressing the Class C P99+ AmpC; experiment: microbe, parasite or virus in culture; assay type: cell-based; details: for MIC of example compound, E. cloacae P99 AmpC + 8 μg/mL CAZ: in the presence of fixed 8 μg/mL Ceftazidime
Text: (§2) To determine the ability of test compounds to potentiate the inhibition of the growth of bacterial strains producing beta-lactamase enzymes, classic cell based screening assays were employed. Four bacteria strains producing beta-lactamase enzymes were used: K. pneumoniae expressing the Class A Extended Spectrum Beta-Lactamase (ESBL) CTX-M-15, E. coli expressing the Class A ESBL SHV-5, E. cloacae expressing the Class C P99+, and K. pneumoniae expressing the Class A carbapenemase KPC-2. In order to evaluate the ability of test compounds to inhibit beta-lactamase activity, Applicants used a modification of the broth microdilution assay. The assay was conducted in Cation Adjusted Mueller Hinton Broth (CAMHB, BD # 212322, BD Diagnostic Systems, Sparks, Md.). Bacteria strains were grown for 3-5 hours in CAMBH broth. All four strains were grown in presence of 50 μg/mL ampicillin to ensure resistance is maintained. In the meantime, test compounds were diluted in DMSO to a 0.1 mg/mL stock. The compounds were added to a microtiter plate and were diluted in 2-fold serial dilutions in CAMHB in a final concentration range of 8 μg/mL to 0.015 μg/ml. An overlay of CAMHB containing a cephalosporin was added to the compounds at a final static concentration of 8 μg/ml. […] Each of these compound plates are made in quadruplicate, one for each bacteria strain. In addition to the titration of test compounds the MICs of a panel of cephalosporins is also tested to ensure the strains are behaving consistently from test to test. Once the test compound and cephalosporin are added the plates can be inoculated. Inocula are conducted according to CLSI broth microdilution method. After inoculation the plates are incubated for 16-20 hours at 37° C. then the Minimal Inhibitory Concentration (MIC) of the test compound is determined visually.

[3] = system: K. pneumoniae expressing the Class A ESBL CTX-M-15; experiment: microbe, parasite or virus in culture; assay type: cell-based; details: for MIC of example compound, K. pneumoniae CTX-M-15 + 8 μg/mL CAZ: in the presence of fixed 8 μg/mL Ceftazidime
[4] = system: K. pneumoniae expressing the Class A carbapenemase KPC-2; experiment: microbe, parasite or virus in culture; details: for MIC of example compound, K. pneumoniae KPC-2 + 8 μg/mL CAZ: in the presence of fixed 8 μg/mL Ceftazidime
[5] = system: E. coli expressing the Class A ESBL SHV-5; experiment: microbe, parasite or virus in culture; assay type: cell-based; details: for MIC of example compound, E. coli SHV-5 + 8 μg/mL CAZ: in the presence of fixed 8 μg/mL Ceftazidime
Text: as §2

[6] = cellular extracts of E. coli containing SHV-5 (Examples 2-30)
[7] = purified beta-lactamase enzyme (Examples 1 and 31-64)
[8] = Klebsiella pneumoniae, read-out: MIC alone

T1 sequence (P0A3M1 22-286): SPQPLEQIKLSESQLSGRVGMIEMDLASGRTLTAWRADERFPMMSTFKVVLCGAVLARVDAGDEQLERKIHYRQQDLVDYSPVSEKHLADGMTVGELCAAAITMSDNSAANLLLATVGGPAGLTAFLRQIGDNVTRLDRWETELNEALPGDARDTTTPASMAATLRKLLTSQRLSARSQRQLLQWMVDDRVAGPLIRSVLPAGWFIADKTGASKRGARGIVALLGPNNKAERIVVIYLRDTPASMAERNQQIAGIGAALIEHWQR

Row | SMILES | IC50 (Class A ESBL SHV-5; [6]) | IC50 (Class A ESBL CTXM-15) | IC50 (Class C P99 AmpC) | IC50 [1] | MIC of example compound, E. cloacae P99 AmpC + 8 μg/mL CAZ [2] | MIC of example compound, K. pneumoniae CTX-M-15 + 8 μg/mL CAZ [3] | MIC of example compound, K. pneumoniae KPC-2 + 8 μg/mL CAZ [4] | IC50 (Class A ESBL SHV-5; [7]) | MIC ([2]; Enterobacter cloacae, read-out: MIC alone) | MIC ([5]; Escherichia coli, read-out: MIC alone) | MIC [3, 8] | MIC [4, 8] | MIC of example compound, E. coli SHV-5 + 8 μg/mL CAZ [5]
1 | O=C(N[C@@H](Cc1cccc(C(=O)O)c1O)B(O)O)c1ccccc1 [Example 13, (1R)-1-Benzoylamino-1-(3-carboxy-2-hydroxy)benzyl-methylboronic acid] | 10 to 100 nM | 10 to 100 nM | < 10 nM | < 10 nM | C (C represents an MIC of <1 μg/mL) | C (C represents an MIC of <1 μg/mL) | C (C represents an MIC of <1 μg/mL) |  |  |  |  |  | 
2 | CC(=O)N1CCC(C(=O)N[C@@H](Cc2cccc(C(=O)O)c2O)B(O)O)CC1 [Example 49, (1R)-1-(1-Acetyl-piperidine-4-carbonyl)-amino-1-(3-carboxy-2-hydroxy)benzyl-methylboronic acid] |  | 10 to 100 nM | 10 to 100 nM | < 10 nM | C (C represents an MIC of <1 μg/mL) | C (C represents an MIC of <1 μg/mL) | C (C represents an MIC of <1 μg/mL) | 100 to 1000 nM |  |  |  |  | 
3 | CCC(=O)N[C@@H](Cc1cccc(C(=O)O)c1O)B(O)O [Example 16, (1R)-1-(propionylamino)-2-(2-hydroxy-3-carboxyphenyl)ethyl-1-boronic acid] | 100 to 1000 nM | 10 to 100 nM | 10 to 100 nM | 10 to 100 nM | C (C represents an MIC of <1 μg/mL) | C (C represents an MIC of <1 μg/mL) | C (C represents an MIC of <1 μg/mL) |  |  |  |  |  | 
4 | CC(C)(O/N=C(\C(=O)N[C@@H]1C(=O)N2C(C(=O)[O-])=C(C[n+]3ccccc3)CS[C@H]12)c1csc(N)n1)C(=O)O [Ceftazidime, reference compound] |  |  |  |  |  |  |  |  | 128 µg/mL | > 1020 µg/mL | 128 µg/mL | 32 µg/mL | 
5 | O=C(N[C@@H](Cc1cccc(C(=O)O)c1O)B(O)O)c1cnc2ccccc2n1 [Example 54, (1R)-1-(Quinoxaline-2-carbonyl-amino)-2-(2-hydroxy-3-carboxyphenyl)ethyl-1-boronic acid] |  | < 10 nM | < 10 nM | < 10 nM | A (A represents an MIC >8 μg/mL) | A (A represents an MIC >8 μg/mL) |  | 10 to 100 nM |  |  |  |  | A (A represents an MIC >8 μg/mL)
6 | CC(=O)NCC(=O)N[C@@H](Cc1cccc(C(=O)O)c1O)B(O)O [Example 37, (1R)-1-(2-acetamidoacetylamino)-2-(2-hydroxy-3-carboxyphenyl)ethyl-1-boronic acid] |  | 10 to 100 nM | 10 to 100 nM | 10 to 100 nM | C (C represents an MIC of <1 μg/mL) | C (C represents an MIC of <1 μg/mL) | C (C represents an MIC of <1 μg/mL) | 10 to 100 nM |  |  |  |  | 
7 | O=C(O)c1cccc(C[C@H](NC(=O)C2CC2)B(O)O)c1O [Example 20, (1R)-1-Cyclopropanecarbonyl-amino-1-(3-carboxy-2-hydroxy)benzyl-methylboronic acid] | 100 to 1000 nM | < 10 nM | < 10 nM | 10 to 100 nM | C (C represents an MIC of <1 μg/mL) | C (C represents an MIC of <1 μg/mL) | C (C represents an MIC of <1 μg/mL) |  |  |  |  |  | 
8 | O=C(N[C@@H](Cc1cccc(C(=O)O)c1O)B(O)O)c1ccc(F)cc1 [Example 26, (1R)-1-(4-Fluorobenzoylamino)-(3-carboxy-2-hydroxy)benzyl-methylboronic acid] | 10 to 100 nM | < 10 nM | < 10 nM | < 10 nM | C (C represents an MIC of <1 μg/mL) | C (C represents an MIC of <1 μg/mL) | C (C represents an MIC of <1 μg/mL) |  |  |  |  |  | 
9 | O=C(N[C@@H](Cc1cccc(C(=O)O)c1O)B(O)O)c1ccno1 [Example 46, (1R)-1-(isoxazole-5-carbonyl-amino)-2-(2-hydroxy-3-carboxyphenyl)ethyl-1-boronic acid] |  | < 10 nM | < 10 nM | 10 to 100 nM | C (C represents an MIC of <1 μg/mL) | C (C represents an MIC of <1 μg/mL) | C (C represents an MIC of <1 μg/mL) | < 10 nM |  |  |  |  | 
10 | O=C(N[C@@H](Cc1cccc(C(=O)O)c1O)B(O)O)c1ccc(O)cc1 [Example 36, (1R)-1-(4-Hydroxybenzoyl)-amino-1-(3-carboxy-2-hydroxy)benzyl-methylboronic acid] |  | < 10 nM | < 10 nM | < 10 nM | C (C represents an MIC of <1 μg/mL) | C (C represents an MIC of <1 μg/mL) | C (C represents an MIC of <1 μg/mL) | 100 to 1000 nM |  |  |  |  | 
11 | Cl.NCCOc1cccc(CC(=O)N[C@@H](Cc2cccc(C(=O)O)c2O)B(O)O)c1 [Example 4, (1R)-1-[3-(2-amino)-ethoxy-phenyl]acetylamino-1-(3-carboxy-2-hydroxy)benzyl-methylboronic acid hydrochloride] | < 10 nM | < 10 nM | < 10 nM |  | C (C represents an MIC of <1 μg/mL) | C (C represents an MIC of <1 μg/mL) | C (C represents an MIC of <1 μg/mL) |  |  |  |  |  | C (C represents an MIC of <1 μg/mL)
12 | O=C(Cc1ccccc1)N[C@@H](Cc1cccc(C(=O)O)c1O)B(O)O [Example 10, (1R)-1-(2-phenylacetylamino)-2-(2-hydroxy-3-carboxyphenyl)ethyl-1-boronic acid] | < 10 nM | < 10 nM | < 10 nM |  | C (C represents an MIC of <1 μg/mL) | C (C represents an MIC of <1 μg/mL) | C (C represents an MIC of <1 μg/mL) |  |  |  |  |  | C (C represents an MIC of <1 μg/mL)
